Data: patent US9856225B2, “Substituted phenazines as antimicrobial agents” (University of Florida Research Foundation, Incorporated, priority 2013, dated 2018)
In brackets after ≈: the same amount, converted by molar mass. Several values for one entry are separate records, joined by “and”; a condition that tells them apart may be missing. Equal values may be shown once. Read-outs that look alike come from different tables or passages of the source. Marks after values point to notes of the source that are not given here.

Key:
[1] = tested on: Pseudomonas aeruginosa (PAO1); assay: MIC broth microdilution (CLSI), Luria Broth; assay type: cell-based; conditions: Table 1, PAO1, read-out: Pseudomonas aeruginosa MIC
Experimental: (§1) Antibiotic Susceptibility Tests (MIC Assay Protocol). The minimum inhibitory concentration (MIC) for each compound described herein was determined by the broth microdilution method as recommended by the Clinical and Laboratory Standards Institute (CLSI) (Clinical and Laboratory Standards Institute. 2009. Methods for dilution antimicrobial susceptibility tests for bacteria that grow aerobically; approved standard, eighth edition (M7-A8)). In a 96-well plate, eleven two-fold serial dilutions of each compound were made in a final volume of 100 μL Luria Broth (one column served as a blank; see the MIC assay described herein). Each well was inoculated with 10^5 bacterial cells at the initial time of incubation, prepared from a fresh log phase culture (OD600 of 0.5). […] The concentration range tested for each compound during this study was 0.10 to 100 μM. DMSO served as the vehicle and negative control in each microdilution MIC assay. DMSO was serially diluted at the same concentration as the compounds with a top concentration of 1% v/v. Bacterial strains used: Staphylococcus aureus (ATCC 25923), Staphylococcus epidermidis (ATCC 12228) and Pseudomonas aeruginosa (PAO1). Kanamycin was used as a positive control against Staphylococcus aureus and Staphylococcus epidermidis.

[2] = tested on: Staphylococcus aureus (ATCC 25923); assay: MIC broth microdilution (CLSI), Luria Broth; assay type: cell-based; conditions: Staphylococcus aureus, ATCC25923, Table 1, ATCC 25923, read-out: Staphylococcus aureus MIC
Experimental: as §1

[3] = tested on: Staphylococcus epidermidis (ATCC 12228); assay: MIC broth microdilution (CLSI), Luria Broth; assay type: cell-based; conditions: ATCC12228, Table 1, ATCC 12228, read-out: Staphylococcus epidermidis MIC
Experimental: as §1

[4] = Stability of DMSO stock solutions; assay type: physicochemical
Experimental: Compound storage. Solid stocks of the compounds described herein were stored at −80° C. in vials sealed with PARAFILM. Between 2.0 and 4.5 milligrams of each compound was weighed out, and a 10 mM DMSO stock solution of each compound were prepared. DMSO stock solutions were stored at room temperature in the dark (e.g., wrapped in aluminum foil). At this concentration, a few compounds required gentle heating to completely solubilize. DMSO stock solutions were not subjected to any freeze-thaw cycles to prevent compound breakdown. The compounds were stable in DMSO for several weeks under these mild storage conditions, with the exception of pyocyanin. Pyocyanin is unstable in DMSO at room temperature after one day. […] DMSO stock solutions of about 2 milligrams of pyocyanin were made fresh each day. The hydrolysis stability of select compounds was also tested, e.g., by subjecting these compounds to conditions mimicking the biofilm assays described herein. In one set of exemplary experiments, 3.2 to 4.5 mgs of each of compounds 18a, 12a, 23a, and 21 were treated with 1 mL of sterile water to form a mixture. […] After 24 hours, each of the mixtures was extracted with dichloromethane and evaluated, using TLC and NMR, for hydrolysis of each of compounds 18a, 12a, 23a, and 21 to compound 11.

[5] = Solubility observation; assay type: physicochemical
Experimental: 6,9-Dibromophenazine-1-carboxylic acid (18) and methyl-6,9-dibromophenazine-1-carboxylate (35). 2-((2,5-Dibromophenyl)amino)-3-nitrobenzoic acid (497 mg, 1.16 mmol) was dissolved in 19 mL 2 N aqueous sodium hydroxide and treated with sodium borohydride (131 mg, 3.47 mmol). The resulting reaction mixture was then refluxed for 1.5 hours. After this time, the reaction was made acidic with 2 N aqueous hydrochloric acid, and the resulting precipitate was filtered. The filter cake was then washed with hot chloroform to afford 143 mg (32% yield) of 6,9-dibromophenazine-1-carboxylic acid 18 as a yellow-green solid. […] A small portion of this material was converted to methyl ester 35 for characterization purposes using the following procedure. To a stirred suspension of 6,9-dibromophenazine-1-carboxylic acid (3.7 mg, 0.0097 mmol) in 0.4 mL dimethylformamide was sequentially added potassium carbonate (22 mg, 0.16 mmol) and one drop of iodomethane. The reaction was allowed to stir overnight at room temperature. The reaction was then transferred to a separatory funnel and partitioned between ethyl acetate and water. The organic layer was then washed with brine and collected. […] The crude material was taken up in chloroform and passed over a silica plug to furnish 3.8 mg (quantitative yield) of methyl-6,9-dibromophenazine-1-carboxylate 35 as a yellow solid.

[6] = tested on: MRSA-2 biofilms; assay: Biofilm eradication assay (MBEC); assay type: cell-based, Staphylococcus aureus; conditions: for Biofilm Eradication MBEC: MRSA-2
Experimental: Biofilm eradication assays. […] The protocol for the biofilm eradication assays was essentially the same as the protocols reported in Eun et al., J. Am. Chem. Soc., 2012, 134, 11322 and Ceri et al., J. Clin. Microbiol., 1999, 37, 1771. Biofilm eradication assays were essentially biofilm dispersion assays with the addition of a final treatment with fresh media (and incubation at 37° C. for 24 hours) instead of crystal violet staining. This final incubation allowed viable cells within the biofilm to grow. At the end of this final incubation in biofilm eradication assays, microtiter wells void of turbidity represented eradicated biofilms, and the lowest concentration at which no visible growth was observed was referred to as the minimum biofilm eradication concentration (MBEC). Potent biofilm eradicating small molecules are extremely rare (Fletcher et al., Tetrahedron, 2014, 70, 6373; Jennings et al., ChemBioChem, 2014, 15, 2211). For these experiments, MRSA-2 was selected as the model since MRSA-2 is a multidrug-resistant, biofilm-forming clinical isolate of Staphylococcus aureus (Priyaja et al., Cytotechnol., 2014, doi: 10.1007/s10616-014-9765-5).

[7] = tested on: MRSA-2; assay: MIC against MRSA-2; assay type: cell-based; conditions: Staphylococcus aureus, read-out: MIC against MRSA-2
Experimental: as §1, with “Kanamycin was used as a positive control against Staphylococcus aureus and Staphylococcus epidermidis.” left out
(§2) Vancomycin's activity against MRSA-2. Vancomycin was also evaluated against MRSA-2 since vancomycin has been considered to be the drug of last resort against MRSA infections.

[8] = tested on: S. aureus ATCC 29213; assay: MIC against S. aureus ATCC 29213; assay type: cell-based; conditions: Staphylococcus aureus, ATCC29213
Experimental: as §2

Row | SMILES | MIC [1] | MIC ([2]; range tested 0.10 to 100 μM) | MIC [2] | MIC [3] | stability in DMSO ([4]; 10 mM DMSO stock, room temperature, dark) | decomposition in d6-DMSO (NMR) ([4]; after 8 hours at room temperature) | solubility (in words) [5] | Biofilm Eradication MBEC [6] | Biofilm Eradication MBEC ([6]; listed as vancomycin) | MBEC:MIC ratio ([6]; MRSA-2 biofilm vs planktonic) | MIC [7] | MIC [8]
1 | Cn1c2cccc(=O)c-2nc2ccccc21 [Compound 1, Pyocyanin, reference compound] | > 100 µM | 50 µM | 10.6 µg/mL | 50 µM and 10.6 µg/mL | unstable | significant decomposition | – | – | – | – | – | –
2 | O=C(O)c1cccc2nc3c(Br)ccc(Br)c3nc12 [Compound 18, 6,9-Dibromophenazine-1-carboxylic acid] | > 100 µM | > 100 µM | > 38.3 µg/mL | – | – | – | extremely low solubility | – | – | – | – | –
3 | CN[C@H](CC(C)C)C(=O)N[C@H]1C(=O)N[C@@H](CC(N)=O)C(=O)N[C@H]2C(=O)N[C@H]3C(=O)N[C@H](C(=O)N[C@H](C(=O)O)c4cc(O)cc(O)c4-c4cc3ccc4O)[C@H](O)c3ccc(c(Cl)c3)Oc3cc2cc(c3O[C@@H]2O[C@H](CO)[C@@H](O)[C@H](O)[C@H]2O[C@H]2C[C@](C)(N)[C@H](O)[C@H](C)O2)Oc2ccc(cc2Cl)[C@H]1O [Vancomycin, reference compound] | – | – | – | – | – | – | – | >2,000^d μM | > 2,000 μM | > 2,564 | 0.78 µM (≈ 1.13 µg/mL) | 0.39 to 0.78 µM (≈ 0.565 to 1.13 µg/mL)
